Entries after “also recorded” stand apart in the source; their conditions may differ. Structures can show the parent of a compound that is named as a salt. One block for each molecule: values may come before it.
Key:
TNFα = test: Whole blood assay: inhibition of LPS-induced TNFα release (TNF ELISA); format: cell-based, human; details: for effect on TNF production or release (in words) / inhibition of TNF production at the upper range of the dose curve: 25% whole blood diluted in plasmalyte
Experimental: […]. […] The experiment was conducted at least 2 times in duplicates and the fitted representation above consists of the average of those experiments. The IC50 values were calculated using logistic analysis on Origin Software.
FIG. 4 illustrates a graph showing the inhibition of release of TNF α by terbutaline and salbutamol. This assay evaluated the inhibition of TNF production by salbutamol and terbutaline using the whole blood assay. This method utilized an LPS induction at 10 μg/ml in 25% whole blood diluted in plasmalyte. […] Higher doses were not evaluated because the equivalent mg/kg doses would be too high, therefore, limiting their practical use under therapeutic conditions. IC50 values were not calculated. […] The data and the fit were calculated using Origin Software.
FIG. 5 illustrates a graph showing the inhibition of TNF production by butoxamine, and induction of TNF release by atenolol and metoprolol. […].
This assay measured prazosin alone, and the combination of: prasozin/butoxamine, prasozin/butoxamine/terbutaline, prasozin/butoxamine/salbutamol, and prazosin/salbutamol. […].
We collected whole human blood in a polypropylene tube. Containing a final concentration of 10 units of heparin per ml of blood using gravity flow with 19-gauge needle. To prevent non-specific activation of cells, we used the blood within 30 minutes of draw. The blood was diluted with plasmalyte to 50%, 40%, 30%, 20%, and 10% concentrations. In a matrix based assay set up, each blood dilution was treated with various concentrations of LPS dosages ranging from 60 μg/ml, 10 μg/ml, 6 μg/ml, 1 μg/ml, 0.6 μg/ml, 0.1 μg/ml, and 0.06 μg/ml. The LPS treated blood was incubated at 37 degree in an incubator with continues rotation. Following the incubation, the blood was centrifuged and the plasma was evaluated for TNF quantification using the ELISA assay (BD Biosciences, Los Angeles, Calif.).
We initially tested the ability of LPS to produce TNF from monocytes, by adding various dilutions of LPS (60 μg, 10 μg, 6 μg, 1 μg, 0.6 μg, 0.1 μg, 0.06 μg) per ml of diluted blood (blood dilutions 50%, 40%, 20%, 10%, and 5%). Blood dilutions were made in the clinically relevant buffer “plasmalyte”. LPS treated blood was incubated at 37° C. for 2 hr. Following incubation, we separated the plasma samples by centrifugation. We evaluated the samples using TNF-ELISA. […] Relying on FIG. 1, we conducted a blood dilution curve with 10 μg/ml LPS (FIG. 2). Based on interpretation of FIGS. 1 and 2, we concluded that blood dilution of 20-25% would be ideal at an LPS dose of 10 μg/ml. Based on the FIG. 2 data, we found LPS causes a near linear increase of TNF production in 20% blood. […] If there is too much blood, there will be heavy concentrations of TNF production, exceeding the detection levels of the assay. Using this optimization data, we created a fixed method to measure the inhibition of TNF production or release with various drugs and drug combinations.
Blood was drawn from thirteen independent donors under an IRB approved protocol. […] The blood samples were spun and plasma evaluated for TNF production using TNF ELISA from BD Biosciences. […]. […] It could also provide a possible treatment for rheumatoid arthritis. […]

arthritis [1] = details: cited from earlier work; for inhibition of inflammation in an arthritis model: in vivo
knee and ankle joints = test: Histology of knee and ankle joints after CIA; details: CIA mice
[2] = Body weight in mouse CIA model (gross measure of drug toxicity); details: CIA mice, days 18-35
[3] = system: collagen induced arthritis; details: cited from earlier work
arthritis [4] = details: rat arthritis model; cited from earlier work
[5] = CIA mice, same experimental protocol; cited from earlier work

Molecule: COc1ccc(OC)c(C(O)C(C)NC(C)(C)C)c1 (racemic) [Butoxamine, DL-erythro-α-(2,5-dimethoxyphenyl)-β-t-butyl aminopropanol hydrochloride]
- effect on TNF production or release (in words) (TNFα; LPS 10 μg/ml): very little inhibition if at all
- inhibition of TNF production at the upper range of the dose curve (TNFα; LPS 10 μg/ml): ≤ 20%
- inhibition of arthritis in animals (in words) (arthritis [1]; previous reports): potent inhibitor of arthritis in animals

Molecule: CC(C)NCC(O)COc1ccc(CC(N)=O)cc1 (stereo not shown) [Atenolol, atenolol]
- effect on TNF production or release (in words) (TNFα; LPS 10 μg/ml): significant elevation in the TNF response; also recorded: activators of TNF release

Molecule: COCCc1ccc(OCC(O)CNC(C)C)cc1 (stereo not shown) [Metoprolol, metoprolol]
- effect on TNF production or release (in words) (TNFα; LPS 10 μg/ml): significant elevation in the TNF response; also recorded: activators of TNF release

Molecule: Cc1ccc(N(CC2=NCCN2)c2cccc(O)c2)cc1 [Phentolamine, phentolamine]
- effect on TNF production or release (in words) (TNFα; LPS 10 μg/ml): does not have the same level of inhibition as prazosin and yohimbine alone

Molecule: COc1cc2nc(N3CCN(C(=O)c4ccco4)CC3)nc(N)c2cc1OC [Prazosin, prazosin]
- joint histology (Toluidine blue) (knee and ankle joints): prevents inflammation, bone and cartilage destruction, pannus formation and bone erosion
- drug concentration at which TNF activity is inhibited (TNFα; LPS 10 μg/ml, 25% blood diluted in plasmalyte): 20 µg/mL
- effect on TNF production or release (in words) (TNFα; LPS 10 μg/ml): lowest IC50
- inhibition of TNF production at the upper range of the dose curve (TNFα; LPS 10 μg/ml): ~100%
- inhibition of TNF at the upper range of the dose curve, thirteen donors (TNFα; blood of thirteen independent donors, 37 degrees, 2 hours): ~100%
- body weight change [2]: weight remained constant
- body weight change ([2]; listed as NM2014): essentially unchanged

Molecule: CC(C)(C)NCC(O)c1ccc(O)c(CO)c1 (stereo not shown) [Salbutamol, salbutamol]
- severity of collagen-induced arthritis (in words) ([3]; mouse, in vivo): reduces the severity of collagen-induced arthritis
- inhibition of inflammation in an arthritis model (arthritis [1]): 50%

Molecule: CC(C)(C)NCC(O)c1cc(O)cc(O)c1 (stereo not shown) [Terbutaline, terbutaline]
- benefit in collagen induced arthritis ([3]; mice): 50%
- effect on TNF production or release (in words) (TNFα; LPS 10 μg/ml): minimal effect
- reduction of disease severity (arthritis [4]): 50%
- inhibition of inflammation in an arthritis model (arthritis [1]): 50%

- IC50 (TNFα; Homo sapiens, LPS 10 μg/ml, 25% blood diluted in plasmalyte, 37° C. 2 h): 70 to 100 µg/mL
Molecule: COC(=O)[C@@H]1[C@H]2C[C@H]3c4[nH]c5ccccc5c4CCN3C[C@@H]2CC[C@@H]1O [Yohimbine, yohimbine]
- inhibition of TNF production at the upper range of the dose curve (TNFα; LPS 10 μg/ml): 80%

Molecule: Enbrel
- body weight change, historical Enbrel data [5]: essentially unchanged
